Measured values as given in patent publication US20240058311A1, “USE OF SMO INHIBITOR IN PREPARATION OF DRUG FOR PREVENTING, DELAYING OR A[…] STENOSIS OF ART[…]” (JINAN UNIVERSITY, priority 2022, published 2024).

Experiments:
HUVECs [1] = assay: Lactate dehydrogenase (LDH) assay in HUVECs under high glucose; type: cell-based, human; conditions: HG, after intervention with Cyc (FIG. 6C)
Description: HUVECs were inoculated in a 6-well plate (1×10^6 cells/well) and treated in different glucose conditions. After 48 hours of culture, the supernatant was collected, and the LDH activity was analyzed using an LDH cytotoxicity assay kit.

HUVECs [2] = assay: Apoptosis detection (AnnexinV-FITC/PI) in HUVECs under high glucose; type: cell-based, human; conditions: high glucose conditions (FIG. 6D)
Description: HUVECs were inoculated into a 6-well plate and treated with different concentrations of glucose. After 48 hours of culture, the cells were collected, washed twice with cold PBS, and suspended to 1×10^6 cells/mL with a labeling buffer (1×), and 5 μL of AnnexinV-FITC and 5 μL of propidium iodide (PI) were added. The cells were mixed evenly and incubated at room temperature away from light for about 15 minutes. 300 μL of labeling buffer was added to each tube, and samples were loaded within 1 hour. Annexin-V and PI were used to label early and late apoptotic cells, respectively. […] PI is a kind of nucleic acid dye, cannot penetrate the whole cell membrane, but can penetrate the cell membrane of cells in the middle and late apoptosis and dead cells to stain the nucleus.

PECs = assay: Apoptosis detection in cultured PECs under high glucose; type: cell-based; conditions: high glucose conditions (FIG. 6E)
IL-6 [3] = assay: Western blot of IL-6 in high glucose-treated HUVECs; type: cell-based, human; conditions: western blot (FIG. 7D, 7E)
TNF-α [4] = assay: Western blot of TNF-α in high glucose-treated HUVECs; type: cell-based, human; conditions: western blot (FIG. 7D, 7F)
MCP-1 [5] = assay: Western blot of MCP-1 in high glucose-treated HUVECs; type: cell-based, human; conditions: western blot (FIG. 7D, 7G)
TNF-α [6] = assay: ELISA of TNF-α in HUVEC culture supernatant; type: cell-based, human; conditions: HUVECs treated with 10 μM, ELISA (FIG. 8B)
Description: (§1) HUVECs were inoculated into a 6-well plate and treated with glucose of different concentrations. After 48 hours, the supernatant was collected, and the expression of inflammatory cytokines TNF-α, MCP-1. and IL-6 in the supernatant was detected using TNF-α, MCP-1 and IL-6 ELISA kits according to instructions of the kits, respectively.

MCP-1 [7] = assay: ELISA of MCP-1 in HUVEC culture supernatant; type: cell-based, human; conditions: HUVECs treated with 10 μM, ELISA (FIG. 8C)
Description: as §1

IL-6 [8] = assay: ELISA of IL-6 in HUVEC culture supernatant; type: cell-based, human; conditions: HUVECs treated with 10 μM, ELISA (FIG. 8A)
Description: as §1

[9] = Body weight of diabetic AVF rats; type: in vivo, rat; conditions: 1 mg/kg/day intraperitoneal, DM+Cyc vs DM group (FIG. 9)
Description: (§2) Male SD rats which were aged 6-8 weeks and weighed 200-250 g were purchased from Beijing Vital River Laboratory Animal Technology Co., Ltd. In order to induce diabetes, the rats fasted overnight. Streptozotocin (STZ) (US, sigma, S0130-1G) (65 mg/kg) was dissolved in the citric acid buffer solution (0.1 M citric acid and 0.1 M sodium citrate) and single injected intraperitoneally into the abdominal cavity of the rats. The control group was administrated with an equal volume of the mediator-sodium citrate buffer (pH 4.5). Three days after the STZ injection, SD rats whose fasting-blood glucose (FPG) was greater than or equal to 300 mg/dL measured by Roche glucometer (Roche, Shanghai, China, LKBIO1500) were considered to have diabetes and used in follow-up experiments (FIG. 10).
(§3) After the construction of the diabetic model. SD rats were used to construct the AVF model. Rats were anesthetized by intraperitoneal injection of chloral hydrate (0.3 mL/100 g) and placed on the operating table during the operation. […]
(§4) Weight and blood glucose of rats were measured every week during the experiment, peripheral blood was extracted at specific time points (0, 1, and 14 weeks) for analysis, and AVF tissues were isolated at the end of the experiment for further analysis.

[10] = Blood glucose level of diabetic AVF rats; type: in vivo, rat; conditions: 1 mg/kg/day intraperitoneal, DM+Cyc vs DM group (FIG. 10)
Description: as §2, §3, §4

diabetic AVF rats [11] = assay: Ultrasonic examination of AVF in diabetic AVF rats; type: in vivo, rat; conditions: 1 mg/kg/day i.p.
Description: as §2
After the construction of the diabetic model. SD rats were used to construct the AVF model. Rats were anesthetized by intraperitoneal injection of chloral hydrate (0.3 mL/100 g) and placed on the operating table during the operation. The iliac vascular area was exposed by cutting a 3 cm incision along the left inguinal fold and retracting abdominal muscle tissue and other soft tissue. The operation was carried out under a microscope, and the iliac artery and vein were separated from the surrounding fascia and nerves.

diabetic AVF rats [12] = assay: Hematoxylin-eosin staining of vascular tissue at AVF anastomosis; type: in vivo, rat; conditions: HE staining at AVF anastomosis, 1 mg/kg/day i.p., vs DM group (FIG. 12)
Description: (§5) The paraffin-embedded tissue sections were stained with HE. Blood vessel tissue samples were dewaxed and rehydrated, and antigen retrieval and IHC staining were carried out. Tissue sections were blocked at room temperature for at least 1 hour and incubated overnight with antibodies of TNF-α, MCP1, IL-6, and SMO at 4° C. After careful cleaning, tissue sections were detected using a DAB-HRP method and observed with a microscope. Quantitative analysis was carried out according to the percentage of […] cells and the staining intensity.
as §2
After the construction of the diabetic model. […]

SMO [13] = assay: Immunohistochemistry of SMO in vascular tissue around the fistula; type: in vivo, rat; conditions: 1 mg/kg/day i.p., vs DM group (FIG. 13)
Description: as §5

TNF-α [14] = assay: Immunohistochemistry of TNF-α in vascular tissue around the fistula; type: in vivo, rat; conditions: 1 mg/kg/day i.p., vs DM group (FIG. 13)
Description: as §5

MCP-1 [15] = assay: Immunohistochemistry of MCP-1 in vascular tissue around the fistula; type: in vivo, rat; conditions: 1 mg/kg/day i.p., vs DM group (FIG. 13)
Description: as §5

IL-6 [16] = assay: Immunohistochemistry of IL-6 in vascular tissue around the fistula; type: in vivo, rat; conditions: 1 mg/kg/day i.p., vs DM group (FIG. 13)
Description: as §5

Cleaved caspase 3 = assay: Immunohistochemistry of Cleaved caspase 3 in vascular tissue around the fistula; type: in vivo, rat; conditions: 1 mg/kg/day i.p., vs DM group (FIG. 13)
TNF-α [17] = assay: ELISA of TNF-α in peripheral blood plasma of rats; type: in vivo, rat; conditions: 1 mg/kg/day i.p., vs DM group (FIG. 14A)
Description: (§6) Peripheral blood samples of rats were collected, and plasma was separated. The concentration of cytokines (TNF-α, MCP-1, and IL-6) in plasma was determined using an ELISA kit (Jiangsu Enzyme Immune Industrial Co., Ltd., China).
as §4

MCP-1 [18] = assay: ELISA of MCP-1 in peripheral blood plasma of rats; type: in vivo, rat; conditions: 1 mg/kg/day i.p., vs DM group (FIG. 14B)
Description: as §6, §4

IL-6 [19] = assay: ELISA of IL-6 in peripheral blood plasma of rats; type: in vivo, rat; conditions: 1 mg/kg/day i.p., vs DM group (FIG. 14C)
Description: as §6, §4

SMO [20] = assay: Western blot of SMO in vascular endothelial cells from rat AVF tissue; type: in vivo; conditions: vascular endothelial cells isolated from rat AVF tissue, 1 mg/kg/day i.p. (FIG. 14D, 14H)
Description: (§7) After the experiment was finished, the AVF tissues of the rats were collected and digested with enzymes to separate vascular endothelial cells. The vascular endothelial cells were lysed with the mixture liquid of RIPA lysis buffer and the phosphatase inhibitor and centrifuged to collect the supernatant. The protein concentration was measured, and the protein samples were prepared. Electrophoresis was carried out, and the membrane was transferred at 260 mA for 60 minutes. The transferred PVDF membranes were soaked with TBST buffer containing 5% skimmed milk powder, blocked at room temperature at a rotation rate of 60 rpm for 1 hour, and gently washed with TBST buffer 3 times, each time lasting 8-10 minutes. The corresponding diluents of primary antibodies (SMO, Cascpase3, TNF-α, MCP-1, and IL-6) were added, where the dilution ratio was determined according to the requirements of each antibody, and the PVDF membranes were incubated overnight in a shaker at 4° C. and cleaned with TBST buffer 3 times the next day, each time lasting 8-10 minutes. […] Development: Luminescent liquid A and liquid B were mixed according to the ratio of 1:1, the residual water on the PVDF membranes was gently absorbed with filter papers, the mixed luminescent liquid was uniformly dropped on the PVDF membranes, and the western blot results were analyzed on a gel imager.

TNF-α [21] = assay: Western blot of TNF-α in vascular endothelial cells from rat AVF tissue; type: in vivo; conditions: vascular endothelial cells isolated from rat AVF tissue, 1 mg/kg/day i.p. (FIG. 14D, 14F)
Description: as §7

MCP-1 [22] = assay: Western blot of MCP-1 in vascular endothelial cells from rat AVF tissue; type: in vivo; conditions: vascular endothelial cells isolated from rat AVF tissue, 1 mg/kg/day i.p. (FIG. 14D, 14G)
Description: as §7

IL-6 [23] = assay: Western blot of IL-6 in vascular endothelial cells from rat AVF tissue; type: in vivo; conditions: vascular endothelial cells isolated from rat AVF tissue, 1 mg/kg/day i.p. (FIG. 14D, 14E)
Description: as §7

SMO [24] = conditions: HUVECs, high glucose; 10 μM; compared with Vis and Gla at the same dosage (FIG. 5A)
Description: (§8) The total RNA was extracted from HUVECs by the Trizol method. The cDNA was synthesized using Evo M-MLV RT Premix premix for qPCR. Fluorescence quantitative PCR was carried out using gene-specific primers (Table 1) and SYBR® Green Premix Pro Taq HS qPCR Kit. The relative mRNA expression quantity was calculated by 2^−ΔΔCT method.

IL-6 [25] = conditions: HUVECs
Description: as §8

TNF-α [26] = conditions: HUVECs
Description: as §8

MCP-1 [27] = conditions: HUVECs
Description: as §8

## CC1=C2C[C@H]3[C@@H](CC=C4C[C@@H](O)CC[C@@]43C)[C@@H]2CC[C@]12O[C@@H]1C[C@H](C)CN[C@H]1[C@H]2C [Cyc, Cyclopamine]
HUVECs [1]
  LDH in HUVECs: reduced
HUVECs [2]
  apoptosis of HUVECs: significantly reduced
PECs
  apoptosis of cultured PECs: significantly reduced
IL-6 [3]
  expression of IL-6 at protein level: inhibit
TNF-α [4]
  expression of TNF-α at protein level: inhibit
MCP-1 [5]
  expression of MCP-1 at protein level: inhibit
TNF-α [6]
  level of TNF-α in cell culture supernatant: decreased
MCP-1 [7]
  level of MCP-1 in cell culture supernatant: decreased
IL-6 [8]
  level of IL-6 in cell culture supernatant: decreased
[9]
  body weight: remained stable over time
[10]
  blood glucose level: lower than that of the DM group
Diabetic AVF rats [11]; color Doppler ultrasound near AVF anastomotic stoma, DM+Cyc vs untreated DM group (FIG. 11A)
  blood flow: faster
Diabetic AVF rats [11]; ultrasound at AVF anastomosis, DM+Cyc vs untreated group (FIG. 11B)
  diameter of blood vessels in the fistula: increased significantly
Diabetic AVF rats [12]
  intima of blood vessels: improved
  lumen of blood vessels: significantly enlarged
SMO [13]
  expression level of SMO (immunohistochemistry): significantly inhibited
TNF-α [14]
  expression level of TNF-α (immunohistochemistry): significantly inhibited
MCP-1 [15]
  expression level of MCP-1 (immunohistochemistry): significantly inhibited
IL-6 [16]
  expression level of IL-6 (immunohistochemistry): significantly inhibited
Cleaved caspase 3
  expression level of Cleaved caspase 3 (immunohistochemistry): significantly inhibited
TNF-α [17]
  TNF-α in plasma: significantly reduced
MCP-1 [18]
  MCP-1 in plasma: significantly reduced
IL-6 [19]
  IL-6 in plasma: significantly reduced
SMO [20]
  expression level of SMO (western blot): significantly reduced
TNF-α [21]
  expression level of TNF-α (western blot): significantly reduced
MCP-1 [22]
  expression level of MCP-1 (western blot): significantly reduced
IL-6 [23]
  expression level of IL-6 (western blot): significantly reduced
SMO [24]
  inhibiting the expression of SMO: best effect
IL-6 [25]; glucose 5.5-40 mM (FIG. 7A)
  expression of IL-6 at mRNA level: inhibit
IL-6 [25]; high glucose, 10 μM, compared with Vis and Gla at the same dosage (FIG. 5C)
  inhibiting the expression of IL-6: best effect
TNF-α [26]; glucose 5.5-40 mM (FIG. 7B)
  expression of TNF-α at mRNA level: inhibit
TNF-α [26]; high glucose, 10 μM, compared with Vis and Gla at the same dosage (FIG. 5D)
  inhibiting the expression of TNF-α: best effect
MCP-1 [27]; glucose 5.5-40 mM (FIG. 7C)
  expression of MCP-1 at mRNA level: inhibit
MCP-1 [27]; high glucose, 10 μM, compared with Vis and Gla at the same dosage (FIG. 5E)
  inhibiting the expression of MCP-1: best effect
